Assays:
[1] = In vitro release study, Automated Franz Diffusion Cell System, Higuchi model fit; type: physicochemical; conditions: 37° C., PBS pH7.4, 24 hours, regenerated cellulose membrane
Procedure: Four different samples were run in 6 diffusate chamber volume of 4 ml […] PBS solution at pH7.4, with 0.6362 cm^2 effective diffusion area, under 400 rpm stirring and circulation of water bath at 37±1° C. throughout the experiments. Approximately 500 mg of each sample was loaded on the regenerated cellulose membrane surface (5000 Da molecular weight cut-off) in the retentate compartment, which was pre-soaked overnight, to be evaluated for 24 hours. At predetermined intervals, samples were withdrawn to be determined spectrophotometrically for the drug content and replaced with fresh receiving medium. The calculations are done based on average of six measurements from six different retentate compartments.

[2] = log P of the compound used / encapsulated; cited from earlier work

| SMILES | Slope (release rate, Higuchi Model) ([1]; In NLC (NLC-1, NLC-2, NLC-3)) | Slope (release rate, Higuchi Model) ([1]; In cream (C1, C2, C3)) | Slope (release rate, Higuchi Model) ([1]; In solution (A1, A2, A3)) | Log P [2] |
| --- | --- | --- | --- | --- |
| O=S(=O)(O)c1cc2cc(S(=O)(=O)O)c(N=Nc3ccccc3[As](=O)(O)O)c(O)c2c(O)c1N=Nc1ccccc1[As](=O)(O)O [Arsenazo III, arsenazo III] | 8.93 | 11.48 | 19.25 | 0.49 |
| CN(C)c1ccc2cc3ccc(N(C)C)cc3nc2c1 [Acridine orange, acridine orange] | 0.43 | 4.12 | 19.15 |  |
